Test results taken from patent US8669284B2, “Pharmaceutical composition comprising a bi-cyclic compound and method for stabilizing the bi-cyclic compound” (Sucampo AG, priority 2006, dated 2014).

Columns and labels:
Format in all cases: physicochemical
[1] = Stability of compound 1 in medium chain fatty acid triglyceride kept with gelatin/glycerin piece at 40° C.; conditions: 60 μg/g in medium chain fatty acid triglyceride with gelatin piece (gelatin 100, glycerin 35 parts by weight), sealed container, 21 days, on the basis of theoretical amount
Method: One hundred (100) parts by weight of gelatin (Type A, high bloom, SKW Biosystems #195F) and 35 parts by weight of glycerin, a plasticizer, were mixed in water and dried to give gelatin piece whose water content was about 4%. Compound 1 was dissolved in medium chain fatty acid triglyceride (USP/NF grade) to give a liquid mixture comprising 60 μg/g of the compound. 0.5 g of the liquid mixture and 0.5 g of gelatin piece were put together in a sealed container and kept at 40° C. for 21 days. The concentration of compound 1 contained in the liquid mixture was determined in the same manner as Example 1. As a result, the amount of the compound 1 at day 21 was 97.0% on the basis of a theoretical amount (60 μg/g).

[2] = Stability of compound 1 in vehicle solution, 55° C. storage, HPLC; conditions: for Concentration of compound 1 after 55° C. storage, day 10: 55° C. for 10 days; for Concentration of compound 1 after 55° C. storage, day 10 / Concentration of compound 1, day 0: percentage based on the theoretical amount; for Concentration of compound 1, day 0: before storage
Method: Compound 1 was dissolved in a vehicle shown in table 1 below to give 240 μg/g solution (sample). The precise concentration of Compound 1 in the solution was determined by means of HPLC (day 0). Then, the solution was put in a hard grass container and kept at 55° C. for 10 days, and then the precise concentration of the compound 1 in the solution was determined by means of HPLC (day 10).
The determination of the concentration of the compound in the sample was carried out as follows. About 0.2 g of the sample was mixed with exactly 2 ml of internal standard solution and then with a dissolving agent shown in Table 1 to give 5 mL of sample solution. About 12 mg of the reference standard compound 1 was weighted precisely and added with acetonitrile to give exactly 100 ml solution. Exactly 0.8 ml of the solution was obtained and added with exactly 4 ml of the internal standard solution, and then added with the dissolving agent to give 10 ml of standard solution.
The fluorescent labeling agent was added to the respective solution, stirred and stood at room temperature. Then, the respective solution in an amount that theoretically gives 3.6 ng of compound 1 was loaded on the column and analyzed under the condition as follows:
Column: 5 mm×25 cm stainless steel column packed with octadecylsilane treated silica gel for HPLC (5 μm)
Mobile phase: mixture of acetonitrile HPLC grade: methanol HPLC grade: ammonium acetate (0.05 mol/L)

[3] = Stability of soft gelatin capsule of compound 1 at 40° C.; conditions: fill 240 μg/g in medium chain fatty acid triglyceride; for conc. (% of Initial) 40° C. 1 mo: 1 month; for conc. (% of Initial) 40° C. 2 mo: 2 months
Method: Glycerin in an amount shown in Table 3 was added in an appropriate amount of water, stirred and heated. Then, gelatin 100 parts by weight was added thereto to give gelatin solution. Compound 1 was dissolved in medium chain fatty acid triglyceride (USP/NF grade) to give a fill solution containing 240 μg/g of compound 1. The gelatin solution and the fill solution were loaded on capsule forming and filling machine to give capsule containing the fill solution, and dried to give soft gelatin capsule.
The capsule was put in a sealed container and kept at 40° C. for 2 months. The concentration of compound 1 in the fill solution contained in the capsule was determined after 1 and 2 months storage in the same manner as EXAMPLE 1.

[4] = vehicle glycerin, 240 μg/g solution
[5] = vehicle isopropyl palmitate, 240 μg/g solution
[6] = vehicle linolenic acid (comparative), 240 μg/g
[7] = vehicle oleic acid (comparative), 240 μg/g
[8] = vehicle polyethylene glycol 400, 240 μg/g solution
[9] = vehicle propylene glycol ester of fatty acid, 240 μg/g solution
[10] = vehicle propylene glycol, 240 μg/g solution
[11] = soft gelatin capsule shell gelatin 100, glycerin 45 parts by weight
[12] = soft gelatin capsule shell gelatin 100, glycerin 55 parts by weight

amount of the compound 1 at day 21 [1]: 97.0% | stability of compound 1 ([2]; admixing with a polyol and/or a fatty acid ester other than glyceride, versus comparative vehicles): significantly improved | Concentration of compound 1 after 55° C. storage, day 10 [2, 4]: 78.0% | Concentration of compound 1, day 0 [2, 4]: 92.0% | Concentration of compound 1 after 55° C. storage, day 10 ([2]; vehicle hydrogenated maltose starch syrup (comparative), 240 μg/g): 24.4% | Concentration of compound 1 after 55° C. storage, day 10 [2, 5]: 99.1% | Concentration of compound 1, day 0 [2, 5]: 98.9% | Concentration of compound 1 after 55° C. storage, day 10 [2, 6]: 33.1% | Concentration of compound 1, day 0 [2, 6]: 74.8% | Concentration of compound 1 after 55° C. storage, day 10 [2, 7]: 57.3% | Concentration of compound 1, day 0 [2, 7]: 101.7% | Concentration of compound 1 after 55° C. storage, day 10 [2, 8]: 90.1% | Concentration of compound 1, day 0 [2, 8]: 98.2% | Concentration of compound 1 after 55° C. storage, day 10 [2, 9]: 89.0% | Concentration of compound 1, day 0 [2, 9]: 99.9% | Concentration of compound 1 after 55° C. storage, day 10 [2, 10]: 88.6% | Concentration of compound 1, day 0 [2, 10]: 97.8% | Concentration of compound 1 after 55° C. storage, day 10 ([2]; vehicle sugar alcohol solution derived from corn starch (comparative), 240 μg/g): 26.3% | conc. (% of Initial) 40° C. 1 mo [3, 11]: 100.0% | conc. (% of Initial) 40° C. 2 mo [3, 11]: 98.7% | conc. (% of Initial) 40° C. 1 mo [3, 12]: 97.7% | conc. (% of Initial) 40° C. 2 mo [3, 12]: 94.0%
SMILES: CCCCC(F)(F)[C@@]1(O)CC[C@H]2[C@@H](CC(=O)[C@@H]2CCCCCCC(=O)O)O1 [Compound 1, 7-[(2R,4aR,5R,7aR)-2-(1,1-difluoropentyl)-2-hydroxy-6-oxooctahydrocyclopenta[b]pyran-5-yl]heptanoic acid]
